Source: US20240246960A1 (adMare Therapeutics Society, priority 2021, published 2024)

Experiments:
FaDu tumour xenograft [1] = assay: In vivo clonogenic survival (CS-ER), FaDu tumour xenografts ± radiation; conditions: Rag2M mice
Procedure: FaDu tumour xenograft-bearing Rag2M mice were treated with single administrations of test compounds at indicated doses±radiation as indicated, at time 0.
Mice were irradiated at 1 h post compound administration (unless otherwise indicated), with 300 KV X-rays and a 10 mA current from a Precision XRAD 300 machine (USA) with a beam-hardening filter (2 mm Al+0.25 mm Cu+0.75 mm Sn) and an adjustable site to specimen distance (SSD) at a dose of 8-10 Gy, delivered at a rate of ˜1.05 Gy/min.
Mice were terminated at times after irradiation as indicated, and tumour tissues excised. A portion of tumour approximately 300-500 mg was briefly minced using sterile scissors and placed in a pre-weighed gentleMACS C tube (Miltenyi Biotec cat #130-093-237) and weighed with combined tumour+tube mass recorded. A 5 mL aliquot of enzyme cocktail comprising of trypsin/DNase/collagenase/EDTA-Na2 in PBS (1 mg/ml trypsin+0.26 mg/ml DNase+0.21 mg/ml collagenase+2 mM EDTA-Na2) was added to the tube, which is then run on the gentleMACS Dissociator disaggregation system. Tubes were then incubated at 37° C. and continually rotated for 20 min before again running on the gentleMACS Dissociator program. Samples were then diluted with 5 ml MEM medium containing 5% FBS and filtered (Falcon cell strainer 100 μm, cat #352360). After centrifugation (1100 rpm for 6 minutes at 4° C.) supernatant was aspirated and the cells resuspended in 4 ml cold growth medium (MEM+10% FBS)+50 ul DNase (5 mg/ml DNase solution). Cell numbers were counted from the same cell solution using a hemacytometer. Appropriate dilutions (control: 10,000 cells/ml; 8Gy: 400,000 cells/ml; drug+radiation treated; 500,000 cells/ml) were made and cells then plated in triplicate: control: 100 μl and 300 μl (1000 and 3000 cells/6 cm tissue culture plate); 8Gy: 30 μl, 105 μl and 350 μl (12000, 42000 cells/6 cm plates and 140000 cells/10 cm plate); drug+8Gy: 70 μl, 300 μl, 1.2 ml (35000 and 150000 cells/6 cm plates and 600000 cells/10 cm plates—only duplicate). Plates were incubated at 37° C. (in a 5% CO2, 5% O2 and balance N2 environment) for 14 days. For a final and accurate automated live-cell counting a solution of Hoechst33342 (0.01 mg/ml)+Propidium Iodide (0.004 mg/ml) in 0.9% saline was mixed with an appropriate cell number dilution of the samples in 96 well plates (50 ul staining solution+50 ul cell suspension of 10000 cells/ml) and images are taken of the wells and cell numbers are calculated by a computer program.
After 14 days plates were removed from the incubator, rinsed with PBS and stained with cold 2 g/L Malachite green oxalate salt solution (Sigma-Aldrich, cat #M6880) for 30 minutes at room temperature. Plates were rinsed with distilled water and dried. Pictures were obtained of the plates and colonies consisting of 50 or more cells were counted using a Stuart Scientific colony counter.
All plates with colonies were analyzed except when colony numbers were so high that the edges of individual colonies could not be determined accurately. Plating efficiency (PE) of each tumour sample was calculated first: PE is a ratio of the number of colonies to the number of cells seeded (sum of all the colonies countable in all the plates of the same sample divided by the sum of cells plated in the same plates). The PE of control tumours was averaged for the calculation of surviving fraction (SF): SF is based on the number of colonies formed in drug and/or radiation treated cells relative to that of untreated control (PE of treated tumor sample divided by PE of control). All treated data points were compared separately to the average of the controls. Finally, a Clonogenic Survival Enhancement Ratio (CS-ER) was calculated: the SF of irradiated control groups were divided by the SF of treatment groups to determine treatment group-specific CS-ER values, and these were assigned scores based on defined response ranges: values >6=A, 4-6=B, <4=C.

FaDu tumour xenograft [2] = assay: In vivo tumour growth delay (TGD-ER), FaDu tumour xenografts + radiation; conditions: PO
Procedure: FaDu tumour xenograft-bearing animals were monitored for tumour growth and once average tumour size reached approximately 100-250 mm3, animals were assigned to treatment cohorts using stratified randomization. Animals were weighted and treated with doses of test compounds at 10, 30 or 100 mg/kg PO from 1, 3 or 10 mg/mL formulations at time 0.
For BID dosing regimens, at 8 h following the first injection, animals were again administered with test compound at the same dose as their previous administration. Animals were weighed and had tumours measured using calipers three times weekly until the endpoint of maximum tumour volume, 1000 mm3, was reached and animals were euthanized. Tumour volumes were calculated according to the equation L×W^2/2 with the length (mm) being the longer axis of the tumour; in the case that no tumour was palpable, tumour volumes were recorded as 0 mm^3.
Data were calculated as tumour growth normalized to day 0 measurements, with time to tumour doubling determined. Average time to tumour doubling for each group was used to determine a Tumour Growth Delay Enhancement Ratio (TGD-ER): the time to doubling for treatment groups were divided by the time to doubling for irradiation-alone groups to determine group-specific TGD-ER values, and these were assigned scores based on defined response ranges: values >2.5=A, 1-2.5=B, <1=C.

[3] = Microsomal stability assay, human liver microsomes; format: in vitro ADME; conditions: for microsomal CLint at 0.1 uM: both sexes, human, liver microsomes, pH 7.4, 0.1 mg/mL microsomes, 0.1 uM compound
Procedure: Samples were then mixed and centrifuged. Supernatants were used for HPLC-MS/MS analysis. […] Peak areas corresponding to the test compound were recorded.

SMILES | Microsomal Stability (human) % rem. 60 min [3] | microsomal CLint at 0.1 uM [3] [µL/min/mg] | CS-ER Range Score (FaDu tumour xenograft [1]; 30 mpk + 8 Gy, 2 h) | CS-ER Range Score (FaDu tumour xenograft [1]; 30 mpk + 8 Gy, 4 h) | also measured
O=C(N[C@H]1CC[C@@H](Oc2nc(N3CCOCC3)cc3ncccc23)CC1)c1ncccn1 [Compound 123, N-((1s,4s)-4-((7-Morpholino-1,6-naphthyridin-5-yl)oxy)cyclohexyl)pyrimidine-2-carboxamide] | H (% remaining = 75-100%) | < 116 |  |  | CS-ER Range Score (FaDu tumour xenograft [1]; 100 mpk + 10 Gy, 0.5 h): C (<4=C); CS-ER Range Score (FaDu tumour xenograft [1]; 100 mpk + 10 Gy, 4 h): A (values >6=A); CS-ER Range Score (FaDu tumour xenograft [1]; 100 mpk + 10 Gy, 8 h): A (values >6=A); CS-ER Range Score (FaDu tumour xenograft [1]; 100 mpk + 10 Gy, 24 h): A (values >6=A); TGD-ER Range Score (FaDu tumour xenograft [2]; 10 mpk + 10 Gy): B (1-2.5=B); TGD-ER Range Score (FaDu tumour xenograft [2]; 30 mpk + 10 Gy): B (1-2.5=B); TGD-ER Range Score (FaDu tumour xenograft [2]; 100 mpk + 10 Gy): A (values >2.5=A); TGD-ER Range Score (FaDu tumour xenograft [2]; (30 mpk + 2 Gy) Q5D): A (values >2.5=A); TGD-ER Range Score (FaDu tumour xenograft [2]; (30 mpk) Q5D): C (<1=C)
O=C(N[C@H]1CC[C@@H](Oc2nc(N3CCOCC3)cc3ncccc23)CC1)c1c[nH]cn1 [Compound 144, N-((1s,4s)-4-((7-morpholino-1,6-naphthyridin-5-yl)oxy)cyclohexyl)-1H-imidazole-4-carboxamide] | G (% remaining = 50-75%) | < 116 | C (<4=C) | B (4-6=B) | 
COc1cnc(N[C@H]2CC[C@@H](Oc3nc(N4CCOCC4)cc4ncc(NS(C)(=O)=O)cc34)CC2)nc1 [Compound 203, N-(5-(((1s,4s)-4-((5-methoxypyrimidin-2-yl)amino)cyclohexyl)oxy)-7-morpholino-1,6-naphthyridin-3-yl)methanesulfonamide] |  |  | B (4-6=B) | B (4-6=B) | 
O=C(N[C@H]1CC[C@@H](Oc2nc(N3CCOCC3)cc3ncccc23)CC1)c1ncco1 [Compound 142, N-((1s,4s)-4-((7-morpholino-1,6-naphthyridin-5-yl)oxy)cyclohexyl)oxazole-2-carboxamide] | F (% remaining = 25-50%) | > 116 | B (4-6=B) | B (4-6=B) | 
O=C(N[C@H]1CC[C@@H](Oc2nc(N3CCOCC3)cc3ncccc23)CC1)c1ccncc1 [Compound 113, N-((1s,4s)-4-((7-morpholino-1,6-naphthyridin-5-yl)oxy)cyclohexyl)isonicotinamide] | F (% remaining = 25-50%) | > 116 | C (<4=C) | B (4-6=B) | 
O=C(N[C@H]1CC[C@@H](Oc2nc(N3CCOCC3)cc3ncccc23)CC1)c1ccnnc1 [Compound 121, N-((1s,4s)-4-((7-morpholino-1,6-naphthyridin-5-yl)oxy)cyclohexyl)pyridazine-4-carboxamide] | G (% remaining = 50-75%) | < 116 |  | C (<4=C) | 
O=C(N[C@H]1CC[C@@H](Oc2nc(N3CCOCC3)cc3ncccc23)CC1)c1cc[nH]c1 [Compound 140, N-((1s,4s)-4-((7-morpholino-1,6-naphthyridin-5-yl)oxy)cyclohexyl)-1H-pyrrole-3-carboxamide] | F (% remaining = 25-50%) | > 116 |  | B (4-6=B) | TGD-ER Range Score (FaDu tumour xenograft [2]; 30 mpk BID + 10 Gy): C (<1=C)
CS(=O)(=O)Nc1cnc2cc(N3CCOCC3)nc(O[C@H]3CC[C@@H](Nc4ncccn4)CC3)c2c1 [Compound 185, N-(7-morpholino-5-(((1s,4s)-4-(pyrimidin-2-ylamino)cyclohexyl)oxy)-1,6-naphthyridin-3-yl)methanesulfonamide] | F (% remaining = 25-50%) | > 116 |  | B (4-6=B) | TGD-ER Range Score (FaDu tumour xenograft [2]; 10 mpk BID + 5 Gy): B (1-2.5=B); TGD-ER Range Score (FaDu tumour xenograft [2]; 30 mpk BID + 5 Gy): B (1-2.5=B); TGD-ER Range Score (FaDu tumour xenograft [2]; 100 mpk BID + 5 Gy): B (1-2.5=B)
c1cnc(N[C@H]2CC[C@@H](Oc3nc(N4CCOCC4)cc4ncccc34)CC2)nc1 [Compound 20a, N-((1s,4s)-4-((7-Morpholino-1,6-naphthyridin-5-yl)oxy)cyclohexyl)pyrimidin-2-amine] | F (% remaining = 25-50%) | > 116 |  |  | 
